Like-named read-outs stand apart in the source and are kept apart here.
Tested on: HIV-1
Experiment: HIV-1 single-round infectious luciferase reporter virus (pseudotype) assay in HeLa CD4 CCR5 cells
Assay type: cell-based
Method in brief: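 HeLa CD4 CCR5 cells (5×10^4/well, DMEM + 10% FBS) were treated with compound (final <10 μM) and infected with single-round luciferase reporter virus made in 293 cells, at MOI ~0.01. Luciferase was read 72 h post infection. EC50 came from 10-concentration percent-inhibition curves fitted to a four-parameter logistic model.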

[1] = Human immunodeficiency virus 1, HeLa-CD4/CCR5, read-out: EC50 Group from TABLE 1, HeLa CD4 CCR5 cells, single-round infectious luciferase reporter virus
[2] = Human immunodeficiency virus 1, HeLa-CD4/CCR5, read-out: EC50 Group from Table 1, Table 2-1, HeLa CD4 CCR5 cells, single-round luciferase reporter virus
[3] = Human immunodeficiency virus 1, HeLa-CD4/CCR5, read-out: EC50 Group from Table 1, Table 4, HeLa CD4 CCR5 cells, single-round luciferase reporter virus

| Structure (SMILES) | EC50 [1] | other results |
| --- | --- | --- |
| CNc1nc(-c2ncc(F)c3c(C(=O)C(=O)N4CCN(C(=O)c5ccccc5)CC4)c[nH]c23)no1 [Example 298] | < 1000 nM |  |
| COc1cnc(-c2cnc3ccccc3n2)c2[nH]cc(C(=O)C(=O)N3CCN(C(=O)c4ccccn4)CC3)c12 [Example 186, 1-picolinoyl-4-[(4-methoxy-7-(quinoxakin-2-yl)-6-azaindol-3-yl)-oxoacetyl]piperazine] | < 1000 nM |  |
| C[C@@H]1CN(C(=O)c2ccccc2)CCN1C(=O)C(=O)c1c[nH]c2c(-c3cnc(O)cn3)nccc12 [Example 157] | < 1000 nM |  |
| C[C@@H]1CN(C(=O)c2ccccc2)CCN1C(=O)C(=O)c1c[nH]c2c(-c3cncc(NC(=O)C4OC4C(=O)O)n3)nccc12 (stereo in doubt) [Example 296, 3-(6-{3-[2-(4-Benzoyl-2-methyl-piperazin-1-yl)-2-oxo-acetyl]-1H-pyrrolo[2,3-c]pyridin-7-yl}-pyrazin-2-ylcarbamoyl)-oxirane-2-carboxylic acid] | < 1000 nM |  |
| O=C(C(=O)N1CCN(C(=O)c2ccccc2)CC1)c1c[nH]c2c(-c3ccc(Cl)cc3)nccc12 [Example 2, 1-benzoyl-4-[(7-(4-chlorophenyl)-6-azaindol-3-yl)-oxoacetyl]piperazine] | < 1000 nM |  |
| CCN(CC)C(=O)c1cnc(-c2ncc(OC)c3c(C(=O)C(=O)N4CCN(C(=O)c5ccccn5)CC4)c[nH]c23)cn1 [Example 184, 1-picolinoyl-4-[(4-methoxy-7-(2-diethylaminocarbonyl-pyrazin-5-yl)-6-azaindol-3-yl)-oxoacetyl]piperazine] | < 1000 nM |  |
| COc1cnc(-n2nccc2N)c2[nH]cc(C(=O)C(=O)N3CCN(C(=O)c4ccccc4)CC3)c12 [Example 252, 1-benzoyl-4-[(4-methoxy-7-(5-amino-pyrazol-1-yl)-6-azaindol-3-yl)-oxoacetyl]piperazine] | < 1000 nM |  |
| COc1cnc(-n2ccc(C(C)=O)n2)c2[nH]cc(C(=O)C(=O)N3CCN(C(=O)c4ccccc4)[C@H](C)C3)c12 [Example 259, (R)-1-benzoyl-2-methyl-4-[(4-methoxy-7-(3-methylcarbonyl-pyrazol-1-yl)-6-azaindol-3-yl)-oxoacetyl]piperazine] |  | EC50 [2]: < 1000 nM |
| O=C(Nc1cccnc1)c1ncc(Cl)c2c(C(=O)C(=O)N3CCN(C(=O)c4ccccc4)CC3)c[nH]c12 [Example 152] | < 1000 nM |  |
| O=C(C(=O)N1CCN(C(=O)c2ccccc2)CC1)c1c[nH]c2c(-c3nccs3)ccnc12 [Example 131] |  | EC50 [3]: < 1000 nM |
| C[C@@H]1CN(C(=O)c2ccccc2)CCN1C(=O)C(=O)c1c[nH]c2c(-c3cccs3)ccnc12 [Example 128] |  | EC50 [3]: < 1000 nM |
| CCNc1cnc(-c2ncc(OC)c3c(C(=O)C(=O)N4CCN(C(=O)c5ccccc5)CC4)c[nH]c23)cn1 [Example 79, 1-benzoyl-4-[(4-methoxy-7-(2-ethylamino-pyrazin-5-yl)-6-azaindol-3-yl)-oxoacetyl]piperazine] | < 1000 nM |  |
| COc1cnc(-n2ncnc2C)c2[nH]cc(C(=O)C(=O)N3CCN(C(=O)c4ccccc4)CC3)c12 [Example 319] | < 1000 nM |  |
| COc1cnc(-c2cnc(CC(C)C)s2)c2[nH]cc(C(=O)C(=O)N3CCN(C(=O)c4ccccc4)CC3)c12 [Example 90, 1-benzoyl-4-[(4-methoxy-7-(2-isobutyl-thiazol-5-yl)-6-azaindol-3-yl)-oxoacetyl]piperazine] | < 1000 nM |  |
| COc1cnc(-c2cnc(NC(C)=O)cn2)c2[nH]cc(C(=O)C(=O)N3CCN(C(=O)c4ccccc4)CC3)c12 [Example 99, 1-(benzoyl)-4-[(4-methoxy-7-(2-acetylamino-pyrazin-5-yl)-6-azaindol-3-yl)-oxoacetyl]piperazine] | < 1000 nM |  |
| C[C@@H]1CN(C(=O)c2ccccc2)CCN1C(=O)C(=O)c1c[nH]c2c(-c3cncnc3)ccnc12 [Example 51, 1-benzoyl-3-(R)-methyl-4-[(7-(pyrimidin-5-yl)-4-azaindol-3-yl)-oxoacetyl]piperazine] |  | EC50 [3]: < 1000 nM |
| COc1ncc(-c2ncc(OC)c3c(C(=O)C(=O)N4CCN(C(=O)c5ccccc5)CC4)c[nH]c23)cn1 [Example 117, 1-benzoyl-4-[(4-methoxy-7-(2-methoxy-pyrmdin-5-yl)-6-azaindol-3-yl)-oxoacetyl]piperazine] | < 1000 nM |  |
| COc1cnc(-c2cnccn2)c2[nH]cc(C(=O)C(=O)N3CCN(C(=O)c4nc(N)n[nH]4)CC3)c12 [Example 198] | < 1000 nM |  |
| C[C@@H]1CN(C(=O)c2ccccc2)CCN1C(=O)C(=O)c1c[nH]c2c(-c3cncc(N)n3)nccc12 [Example 111, (R)-1-benzoyl-3-methyl-4-[(7-(2-amino-pyrazin-6-yl)-6-azaindol-3-yl)-oxoacetyl]piperazine] | < 1000 nM |  |
| CCOc1ccn(-c2ncc(OC)c3c(C(=O)C(=O)N4CCN(C(=O)c5ccccc5)[C@H](C)C4)c[nH]c23)n1 [Example 233, (R)-1-benzoyl-2-methyl-4-[(4-methoxy-7-(3-ethoxy-pyrazol-1-yl)-6-azaindol-3-yl)-oxoacetyl]piperazine] |  | EC50 [2]: < 1000 nM |
| COc1cnc(-c2cnc(N)cn2)c2[nH]cc(C(=O)C(=O)N3CCN(C(=O)c4ccccc4)CC3)c12 [Example 26] | < 1000 nM |  |
| CC(C)(C)OC(=O)N1CCN(C(=O)C(=O)c2c[nH]c3c(-c4cnccn4)ncc(Cl)c23)CC1 [Example 165] | < 1000 nM |  |
| C[C@@H]1CN(C(=O)c2ccccn2)CCN1C(=O)C(=O)c1c[nH]c2c(-c3cc4ccccc4o3)nccc12 [Example 107, (R)-1-picolinoyl-3-methyl-4-[(7-(benzofuran-2-yl)-6-azaindol-3-yl)-oxoacetyl]piperazine] | < 1000 nM |  |
| COc1cnc(-c2cnc(C)nc2)c2[nH]cc(C(=O)C(=O)N3CCN(C(=O)c4ccccc4)CC3)c12 [Example 171, 1-benzoyl-4-[(4-methoxy-7-(2-methyl-pyrimidin-5-yl)-6-azaindol-3-yl)-oxoacetyl]piperazine] | < 1000 nM |  |
| COc1cnc(-c2ccsc2)c2[nH]cc(C(=O)C(=O)N3CCN(C(=O)c4ccccc4)CC3)c12 [Example 83, 1benzoyl-4-[(4-methoxy-7-(thiophen-3-yl)-6-azaindol-3-yl)-oxoacetyl]piperazine] | < 1000 nM |  |
| C[C@@H]1CN(C(=O)c2ccccc2)CCN1C(=O)C(=O)c1c[nH]c2c(-c3cnc(N)nc3)nccc12 [Example 153, (R)-1-benzoyl-3-methyl-4-[(7-(2-amino-pyrimidin-5-yl)-6-azaindol-3-yl)-oxoacetyl]piperazine] | < 1000 nM |  |
| COc1cnc(-n2ccc(CC(C)C)n2)c2[nH]cc(C(=O)C(=O)N3CCN(C(=O)c4ccccc4)CC3)c12 [Example 281, 1-benzoyl-4-[(4-methoxy-7-(3-isobutyl-pyrazol-1-yl)-6-azaindol-3-yl)-oxoacetyl]piperazine] | < 1000 nM |  |
| O=C(C(=O)N1CCN(C(=O)c2ccccc2)CC1)c1c[nH]c2c(-c3ccnnc3)ncc(F)c12 [Example 30, 1-benzoyl-4-[(4-fluoro-7-(pyridazin-4-yl)-6-azaindol-3-yl)-oxoacetyl]piperazine] | < 1000 nM |  |
| COc1cnc(-c2ccc(C=O)s2)c2[nH]cc(C(=O)C(=O)N3CCN(C(=O)c4ccccc4)CC3)c12 [Example 84, 1-benzoyl-4-[(4-methoxy-7-(5-carbonyl-thiophen-2-yl)-6-azaindol-3-yl)-oxoacetyl]piperazine] | < 1000 nM |  |
| COc1cnc(-c2nccs2)c2[nH]cc(C(=O)C(=O)N3CCN(C(=O)c4ccccn4)CC3)c12 [Example 50] | < 1000 nM |  |

Source: patent US20050090522A1 (priority 2001, published 2005)
